The values below come from PMC9687812, “Discovery of Trace Amine-Associated Receptor 1 (TAAR1) Agonist 2-(5-(4′-Chloro-[1,1′-biphenyl]-4-yl)-4H-1,2,4-triazol-3-yl)ethan-1-amine (LK00764) for the Treatment of Psychotic Disorders” (Biomolecules, 2022).

One data set deals with T1, TAAR1 (Homo sapiens, UniProt Q96RJ0).
T1 sequence (Q96RJ0 1-339): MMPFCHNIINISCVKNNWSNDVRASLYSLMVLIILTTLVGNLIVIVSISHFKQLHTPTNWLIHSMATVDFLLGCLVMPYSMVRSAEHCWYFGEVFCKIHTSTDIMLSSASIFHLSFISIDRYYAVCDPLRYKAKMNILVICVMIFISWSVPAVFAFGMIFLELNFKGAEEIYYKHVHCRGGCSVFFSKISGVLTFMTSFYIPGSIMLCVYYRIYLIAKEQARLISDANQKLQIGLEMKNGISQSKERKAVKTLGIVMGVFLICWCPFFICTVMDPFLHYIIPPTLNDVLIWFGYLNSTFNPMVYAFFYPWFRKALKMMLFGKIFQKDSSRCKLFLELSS
In words: BRET-based cellular cAMP (EPAC biosensor) assay of TAAR1 agonism in transfected HEK-293 cells. The note with it: for Emax: HEK293, read-out: Emax: maximum observed activation of TAAR1 relative to that observed for 1 μM of β-PEA. A general note: BRET reads energy transfer from a luciferase to a nearby fluorophore.

[1] abbreviates: relative to 1 μM β-PEA, mean from 3 BRET assays, errors ±5–10%.
The mark [2] stands for this setting: TAAR1 activation, BRET assay, HEK-293, mean from 3 assays.

Where two headings read alike, the source gives them in different places.

Description for TAAR1: The Bioluminescence Resonance Energy Transfer approach (BRET) has been used for functional activity experiments. HEK-293 cells were transiently transfected with cDNA for TAARs and cAMP BRET biosensor (EPAC) and then plated in a 96-well plate, as described [23]. All compounds were tested at the initial concentration of 10 µM. […] A natural agonist of TAAR1 β-phenylethylamine (β-PEA) was used as a positive control.

With `Cl.NCCc1nnc(-c2cccc([N+](=O)[O-])c2)[nH]1` [Compound 36, 2-(5-(3-Nitrophenyl)-4H-1,2,4-triazol-3-yl)ethan-1-amine Hydrochloride], the melting point (usually the temperature, or range, at which the solid turns liquid) lay within 214 to 216 °C. For the same molecule, at TAAR1, it took 440 nM to reach a half-maximal effect (EC50) and the maximal effect (Emax) (in general, the greatest response seen or fitted, relative to the assay's reference) worked out at 110%.

Regarding `Cl.NCCc1nnc(-c2cccc(Oc3ccccc3Cl)c2)[nH]1` [Compound 53, 2-(5-(3-[2-Chlorophenoxy]phenyl)-4H-1,2,4-triazol-3-yl)ethan-1-amine Hydrochloride], the melting point lay in the range of 202 to 210 °C. On TAAR1, the concentration giving a half-maximal response (EC50) (in general, the concentration at which the effect is half-maximal) turned out to be 847 nM and the Emax is 71%.

Consider `Cl.NCCc1nnc(-c2ccc(OCc3ccc(F)cc3)cc2)[nH]1` [Compound 45, 2-(5-(4-[(4-Fluorobenzyl)oxy]phenyl)-4H-1,2,4-triazol-3-yl)ethan-1-amine Hydrochloride], for which the melting point is 220 to 222 °C. Besides, at TAAR1, the EC50 was 22 nM and the maximum response (Emax) came to 114%.

Take `Cl.NCCc1nnc(-c2ccc(OC(F)(F)F)cc2)[nH]1` [Compound 9, 2-(5-(4-[Trifluoromethoxy]phenyl)-4H-1,2,4-triazol-3-yl)ethan-1-amine Hydrochloride]: the melting point lay in the range of 253 to 254 °C. Also, on TAAR1, the midpoint of the response, the EC50, lay at 310 nM and the Emax is 116%.

As for `COc1ccc(-c2nnc(CCN)[nH]2)cc1.Cl` [Compound 6, 2-(5-(4-Methoxyphenyl)-4H-1,2,4-triazol-3-yl)ethan-1-amine Hydrochloride], the melting point is 248 to 250 °C. Further, on TAAR1, the EC50 was > 1000 nM and the maximum response (Emax) is 56%.

With `Cl.NCCc1nnc(-c2cccc(-c3ccc(F)cc3F)c2)[nH]1` [Compound 66], at TAAR1 (setting [1]), the “Emax: maximum observed activation of TAAR1 relative to that observed for 1 μM of β-PEA” value was found to be 91.

In turn, `CN(C)c1ccc(-c2nnc(CCN)[nH]2)cc1` [Compound 30, 4-(5-(2-Aminoethyl)-4H-1,2,4-triazol-3-yl)-N,N-dimethylaniline] registered a melting point of 244 to 246 °C. Besides, at TAAR1, the “Emax: maximum observed activation of TAAR1 relative to that observed for 1 μM of β-PEA” value was found to be 122. Also, the midpoint of the response on TAAR1 (setting [2]), the EC50, lay at 730 nM.

`COc1ccc(-c2ccc(-c3nnc(CCN)[nH]3)cc2)cc1.Cl` [Compound 58, 2-(5-(4′-Methoxy-(1,1′-biphenyl)-4-yl)-4H-1,2,4-triazol-3-yl)ethan-1-amine Hydrochloride] registered a melting point of 300 to 301 °C. Besides, at TAAR1, a half-maximal response (EC50) required 6 nM and the Emax turned out to be 97%.

On to `Cl.NCCc1nnc(-c2ccc3ncccc3c2)[nH]1` [Compound 35, 2-(5-(Quinolin-6-yl)-4H-1,2,4-triazol-3-yl)ethan-1-amine Hydrochloride], for which the melting point was in the range of 265 to 267 °C. On TAAR1, the 50% effective concentration (EC50) is > 1000 nM and the Emax was found to be 41%.

Regarding `Cc1cc(-c2nnc(CCN)[nH]2)ccc1I.Cl` [Compound 42, 2-(5-(4-Iodo-3-methylphenyl)-4H-1,2,4-triazol-3-yl)ethan-1-amine Hydrochloride], the melting point lay within 225 to 227 °C. Further, at TAAR1, the EC50 was > 1000 nM and the maximal response (Emax) amounted to 76%.

For the molecule `Cl.NCCc1nnc(-c2cccc(I)c2)[nH]1` [Compound 41, 2-(5-(3-Iodophenyl)-4H-1,2,4-triazol-3-yl)ethan-1-amine Hydrochloride], the melting point fell in the range of 224 to 225 °C. On TAAR1, the EC50 was determined as 890 nM and the maximal effect (Emax) turned out to be 80%.

On to `Cc1ccc(Oc2cccc(-c3nnc(CCN)[nH]3)c2)c(C)c1.Cl.Cl` [Compound 52, 2-(5-(3-[2,4-Dimethylphenoxy]phenyl)-4H-1,2,4-triazol-3-yl)ethan-1-amine Hydrochloride Hydrochloride], for which the melting point fell in the range of 308 to 310 °C. Moreover, on TAAR1, the EC50 was > 1000 nM and the Emax was 79%.

In turn, `COc1ccc(-c2ccc(-c3nnc(CCN)[nH]3)cc2)cc1OC.Cl` [Compound 64, 2-(5-(3′,4′-Dimethoxy-(1,1′-biphenyl)-4-yl)-4H-1,2,4-triazol-3-yl)ethan-1-amine Hydrochloride] yielded a melting point of 199 to 201 °C. Further, at TAAR1, the midpoint of the response, the EC50, lay at 185 nM and the maximal effect (Emax) worked out at 104%.

Take `Cl.NCCc1nnc(-c2cccc(Br)c2)[nH]1` [Compound 20, 2-(5-(3-Bromophenyl)-4H-1,2,4-triazol-3-yl)ethan-1-amine Hydrochloride]: the melting point was in the range of 239 to 241 °C. Also, on TAAR1, the response was half-maximal at 218 nM (EC50) and the maximum response (Emax) was found to be 124%.

Consider `Cc1cc(C)cc(-c2nnc(CCN)[nH]2)c1.Cl` [Compound 31, 2-(5-(3,5-Dimethylphenyl)-4H-1,2,4-triazol-3-yl)ethan-1-amine Hydrochloride], for which the melting point fell in the range of 232 to 234 °C. For the same molecule, at TAAR1, the midpoint of the response, the EC50, lay at 813 nM and the maximal response (Emax) turned out to be 117%.

The molecule `CCOc1ccc(-c2nnc(CCN)[nH]2)cc1.Cl` [Compound 25, 2-(5-(4-Ethoxyphenyl)-4H-1,2,4-triazol-3-yl)ethan-1-amine Hydrochloride] returned a melting point of 235 to 236 °C. At TAAR1, the half-maximal effective concentration (EC50) came out at 550 nM and the maximal response (Emax) stood at 139%.

For `CN(C)c1cccc(-c2nnc(CCN)[nH]2)c1.Cl` [Compound 24, 3-(5-(2-Aminoethyl)-4H-1,2,4-triazol-3-yl)-N,N-dimethylaniline Hydrochloride], the concentration giving a half-maximal response (EC50) result at TAAR1 (setting [2]) is “inactive”. On TAAR1 (setting [1]), the “Emax: maximum observed activation of TAAR1 relative to that observed for 1 μM of β-PEA” value was “inactive”.

Regarding “2-(5-(3-Methyl-4-[([4-(trifluoromethyl)benzyl]oxy)phenyl]-4H-1,2,4-triazol-3-yl)) Hydrochloride [Compound 49]”, on TAAR1 (setting [2]), the EC50 result is “inactive”. For the same molecule, on TAAR1 (setting [1]), the “Emax: maximum observed activation of TAAR1 relative to that observed for 1 μM of β-PEA” value is “inactive”.

For `Cl.NCCc1nnc(-c2ccccc2[N+](=O)[O-])[nH]1` [Compound 27, 2-(5-(2-Nitrophenyl)-4H-1,2,4-triazol-3-yl)ethan-1-amine Hydrochloride], the concentration for a half-maximal effect (EC50) on TAAR1 (setting [2]) was > 1000 nM. In addition, the “Emax: maximum observed activation of TAAR1 relative to that observed for 1 μM of β-PEA” value on TAAR1 (setting [1]) is 69.

For the molecule “2-(5-(2-[3,4-Difluorophenoxy]phenyl)-4H-1,2,4-triazol-3-yl) Hydrochloride [Compound 50]”, the EC50 entry on TAAR1 (setting [2]) was “inactive”. Moreover, the “Emax: maximum observed activation of TAAR1 relative to that observed for 1 μM of β-PEA” value at TAAR1 (setting [1]) was “inactive”.

`Cl.NCCc1nnc(-c2cccc(C(F)(F)F)c2)[nH]1` [Compound 8, 2-(5-(3-[Trifluoromethyl]phenyl)-4H-1,2,4-triazol-3-yl)ethan-1-amine Hydrochloride] showed an EC50 at TAAR1 (setting [2]) of 210 nM. Further, the “Emax: maximum observed activation of TAAR1 relative to that observed for 1 μM of β-PEA” value on TAAR1 (setting [1]) is reported as 108.

In the case of “2-(5-(4-Ethylphenyl)-4H-1,2,4-triazol-3-yl)ethan-1-amine Hydrochloride [Compound 26]”, the half-maximal effective concentration (EC50) on TAAR1 (setting [2]) is > 1000 nM. Further, on TAAR1 (setting [1]), the “Emax: maximum observed activation of TAAR1 relative to that observed for 1 μM of β-PEA” value was 71.

On TAAR1 (setting [2]), `Cl.NCCc1nnc(-c2cccc(-c3ccc(F)cc3F)c2)[nH]1` [Compound 66, 2-(5-(4′-(2′,4′-Difluoro-(1,1′-biphenyl)-3-yl)-4H-1,2,4-triazol-3-yl)ethan-1-amine Hydrochloride] yielded a 50% effective concentration (EC50) of 300 nM.

For `Cl.NCCc1nnc(-c2cccc(C(F)(F)F)c2)[nH]1` [Compound 18], the half-maximal effective concentration (EC50) result at TAAR1 (setting [2]) is “inactive”. The “Emax: maximum observed activation of TAAR1 relative to that observed for 1 μM of β-PEA” value on TAAR1 (setting [1]) was “inactive”.
